Test system: HeLa cells, A2780 cells
Experiment: growth profile of cells by Real Time Analyser (xCELLigence RTCA, Roche)
Format: cell-based, human
Details: HeLa and A2780 cells; same concentration of docetaxel; FIG. 2
Source text: FIG. 2A, 2B: HeLa and A2780 measured by Real Time Analyser (Roche). These figures show the growth profile of HeLa cells (A), and A2780 cells (B) after treating with docetaxel drug molecules (D), docetaxel-loaded nanoparticles (NP) and control cells (C). The injected volume contained the same concentration of docetaxel.
The xCELLigence RTCA HT Instrument from Roche Applied Science uses gold electrodes at the bottom surface of microplate wells as sensors to which an alternating current is applied. Cells that are grown as adherent monolayers on top of such electrodes influence the alternating current at the electrodes by changing the electrical resistance (impedance). The degree of this change is primarily determined by the number of cells, strength of the cell-cell interactions, interactions of the cells with the microelectrodes and by the overall morphology of the cells. The RTCA Software calculates the Cell Index (CI) as the relative change in measured impedance to represent cell status. The normalized cell index (NCI—plotted on y axis) is the relative cell impedance presented in the percentage of the value at the base-time. […] NCI increases by rise of cell-number or cell-size. For example NCI value in a culture treated with a proliferation inhibitory drug first can increase (because the cell-size grows) and after decreases (because the cell-number reduces)

SMILES: CC(=O)O[C@@]12CO[C@@H]1C[C@H](O)[C@@]1(C)C(=O)[C@H](O)C3=C(C)[C@@H](OC(=O)[C@H](O)[C@@H](NC(=O)OC(C)(C)C)c4ccccc4)C[C@@](O)([C@@H](OC(=O)c4ccccc4)[C@H]21)C3(C)C [docetaxel, 1,7β,10β-trihydroxy-9-oxo-5β,20-epoxytax-11-ene-2α,4,13α-triyl 4-acetate 2-benzoate 13-{(2R,3S)-3-[(tert-butoxycarbonyl)amino]-2-hydroxy-3-phenylpropanoate}]
- effect on growth profile (normalized cell index) of tumor cell lines: similar
